Legend:
[1] = test system: Hep3B tumor; experiment: In vivo efficacy study in Hep3B-FGF19 amplified mice; conditions: Compound 1 monotherapy
Procedure: (§1) A similar study as described above was carried out using Hep3B-FGF19 amplified mice. Tumor volume results are shown in (FIG. 10A). Compound 1 monotherapy induced Hep3B tumor shrinkage (100% regression, >20% CRs).

[2] = Tolerability in Hep3B and LIX-066 tumor models; format: in vivo
Procedure: All animals were monitored daily for clinical observation (animal mortality, appearance, spontaneous activity, body posture, and food and water intake. Any lesions and adverse reactions were recorded). Any animals showing signs of debilitation, marked body weight loss (>20%), cachexia or large tumors that would inhibit an animal's ability to eat and drink or mobility were euthanized immediately. Any animals with severely ulcerated, infected or severely hemorrhagic tumors, or tumors whose estimated weight exceed 20% of the body weight were euthanized.
as §1

[3] = test system: LIX-066 human primary hepatocellular carcinoma model; experiment: In vivo efficacy study in LIX-066 xenograft model; design: species or system mice; conditions: bid, po, D28
Procedure: LIX-066 was a human primary hepatocellular carcinoma model from ChemPartner. 130 mice were implanted for this study. Two animals were designated as sentinels; 2 animals were designated as extras.
Animals were monitored daily by general clinical observation throughout the study period. Body weights were recorded twice weekly before randomization and recorded every day during dosing period and the dose was adjusted per body weight. Tumor areas (length×width) was measured two to three times per week by using digimatic callipers throughout the study period and tumor volumes were calculated based on the following formula: tumor volume=[…]. The tumor volume was then used for calculations of net tumor growth inhibition (TGIn) values. The TGIn (in percent) is the indication of anti-tumor activity. TGIn (%)=[1−avTi-0/avCi-0)]×100; avTi-0 is the average of the tumor volume of each mouse in the treatment group on a specific day minus the tumor volume of each mouse in the treatment group on the first day; avCi-0 is the average of the tumor volume of each mouse in the Vehicle control group on a specific day minus the tumor volume of each mouse in the Vehicle control group on the first day of treatment. Efficacy data was graphically represented as the mean tumor volume±standard error of the mean (SEM).
Based on about 40% take rate, 50 animals were selected for efficacy study when their tumors reach appropriate size (100-300 mm^3). Five animals were used for plasma PK standard control. All other animals were euthanized. The 50 animals were randomized (blocked randomization/using Excel software) and divided into the following groups for compound administration:
Group 1: N=10; Vehicle control (PEG400: 20% HP-γ-CD=3:2)
Group 2: N=10; Compound 1, 30 mg/kg, bid, po
Group 3: N=10; Compound 1, 100 mg/kg, bid, po […]
All animals were monitored daily for clinical observation (animal mortality, appearance, spontaneous activity, body posture, and food and water intake. Any lesions and adverse reactions were recorded). […]
The mice were euthanized and the tumor weights were measured without sampling.

[4] = test system: Huh-7 liver cancer xenograft; experiment: Huh-7 liver cancer xenograft efficacy study in female Balb/c nude mice; format: in vivo, Mus Musculus; conditions: day eighteen
Procedure: Each mouse was inoculated subcutaneously at the right flank with tumor cells (5×10^6) in 0.2 ml of PBS supplemented with Matrigel (50:50) for tumor development. The treatments were started on day 11 after tumor inoculation when the average tumor size reached approximately 183 mm^3. Each group consisted of nine tumor-bearing mice.
Tumor size was measured twice weekly in two dimensions using a caliper, and the volume was expressed in mm^3 using the formula: […]
where a and b are the long and short diameters of the tumor, respectively. The tumor size was then used to calculate TGI and T/C values.
TGI was calculated for each group using the formula: […]
where Ti is the average tumor volume of a treatment group on a given day; T0 is the average tumor volume of the treatment group on the day treatment began; Vi is the average tumor volume of the vehicle control group on the same day Ti was measured, and V0 is the average tumor volume of the vehicle group on the day treatment began. The T/C value (in percent) is an indication of antitumor effectiveness. T and C are the mean volumes of the treated and control groups, respectively, on a given day.
Summary statistics, including mean and the standard error of the mean (SEM), were provided for the tumor volume of each group at each time point. For tumor volume comparison among more than two groups, a one-way ANOVA was performed. For comparisons between two groups, a t-test was performed. All analysis was run in GraphPad Prism 5.0, with p<0.05 considered to be statistically significant.
For all groups, at four hours after last dosing, tumor samples were collected in less than one minute after the euthanasia. Four tumors in each group were snap frozen; four tumors were fixed and made into FFPE.

[5] = test system: HCC cell lines with an intact FGFR4 signaling pathway (FGFR4, FGF19, and KLB); conditions: Hagel et al., Cancer Discovery (2015); cited from earlier work
[6] = Body weight in Huh-7 xenograft study; conditions: palbociclib 90 mg/kg group, day fourteen
Procedure: Female Balb/c nude mice (Mus Musculus) between six and eight weeks old and weighing 18 to 20 g were used to evaluate the therapeutic efficacy of palbociclib and Compound 1 as monotherapies and in combination in Huh-7 liver cancer xenograft models. The tumor cells were maintained in vitro as a monolayer culture in DMEM medium supplemented with 10% heat inactivated fetal bovine serum at 37° C. in a 5% CO2 atmosphere. The tumor cells were routinely subcultured twice weekly by trypsin-EDTA treatment. The cells growing in an exponential growth phase were harvested and counted for tumor inoculation.
Palbociclib treated animals were supplied with sunflower seeds to mitigate body weight loss on and after day eight per the sponsor's approval.

Compound: C=CC(=O)N[C@H]1CCOC[C@H]1Nc1ncc2cc(-c3c(Cl)c(OC)cc(OC)c3Cl)ccc2n1 [Compound 1, N-((3S,4S)-3-((6-(2,6-dichloro-3,5-dimethoxyphenyl)quinazolin-2-yl)amino)tetrahydro-2H-pyran-4-yl)acrylamide]
- CRs [1]: > 20%
- Hep3B tumor shrinkage (regression) [1]: 100%
- tolerability [2]: well tolerated
- average tumor volume ([3]; Compound 1 30 mg/kg): 262.87 mm^3
- average tumor volume ([3]; Compound 1 100 mg/kg): 168.03 mm^3
- average tumor volume ([3]; Compound 1 200 mg/kg): 112.22 mm^3
- T/C value ([4]; Compound 1 30 mg/kg bid): 57%
- average tumor size ([4]; Compound 1 30 mg/kg bid): 1612 mm^3
- T/C value ([4]; Compound 1 100 mg/kg bid): 24%
- average tumor size ([4]; Compound 1 100 mg/kg bid): 690 mm^3
- T/C value ([4]; Compound 1 200 mg/kg bid): 7%
- average tumor size ([4]; Compound 1 200 mg/kg bid): 198 mm^3

Compound: C=CC(=O)Nc1cccc(C)c1Nc1ncc2cc(-c3c(Cl)c(OC)cc(OC)c3Cl)ccc2n1 [Compound 2, N-(2-((6-(2,6-dichloro-3,5-dimethoxyphenyl)quinazolin-2-yl)amino)-3-methylphenyl)acrylamide]
- proliferation in HCC cell lines [5]: inhibit proliferation

Compound: CC(=O)c1c(C)c2cnc(Nc3ccc(N4CCNCC4)cn3)nc2n(C2CCCC2)c1=O [palbociclib, 6-acetyl-8-cyclopentyl-5-methyl-2-{[5-(1-piperazinyl)-2-pyridinyl]amino}pyrido[2,3-d]pyrimidin-7(8H)-one, reference compound]
- body weight loss (same animal, euthanized) [6]: > 20%
- T/C value ([4]; palbociclib 45 mg/kg): 71%
- average tumor size ([4]; palbociclib 45 mg/kg): 1992 mm^3
- T/C value ([4]; palbociclib 90 mg/kg): 41%
- average tumor size ([4]; palbociclib 90 mg/kg): 1169 mm^3

— patent US20190192522A1, “INHIBITORS OF THE FIBROBLAST GROWTH FACTOR RECEPTOR 4 IN COMBINATION WITH CYCLIN-DEPENDENT KINASE INHIBITORS” (BLUEPRINT MEDICINES CORPORATION, priority 2016, published 2019)
